Our source for the viability and IC50 values is PMC10054552, “Phototoxic Potential of Different DNA Intercalators for Skin Cancer Therapy: In Vitro Screening” (International Journal of Molecular Sciences, 2023).

Common to all, as to format: cell-based, human
The nature of data set [1]: Phototoxicity assay in MET1 cells (irradiation 2.5 J/cm², resazurin). To be noted: human, MET1 squamous cell carcinoma cells, MET1 cells, dark. As for the experimental part:
(§1) The […] SCC cell line (human squamous cell carcinoma) was obtained from Ximbio (London, UK), HaCaT (immortalized human keratinocytes cell line) was obtained from Addexbio (San Diego, CA, USA) and WM983b (human metastatic melanoma cell line) was obtained from Rockland (Pottstown, PA, USA). […] Cells were cultivated in an incubator (Sanyo MCO-19AIC-UV) at 37 °C in a 5% CO2 humidified atmosphere. […] The plates were incubated for 24 h, followed by washing with PBS supplemented with calcium and magnesium. Afterwards, complete culture medium without phenol red was added, and the plates were irradiated from above and submitted to a dose of 2.5 J/cm2 of irradiation emitted by different wavelength light sources coupled with a homemade irradiation system created in our laboratory. […] This experiment was performed in an incubator that was able to keep plates in a dark environment; therefore, the dark control plates were protected from any light source, as well as the others, with the exception of the irradiation that each one was submitted to. Plates were incubated for another 24 h, and finally, the resazurin assay was performed as previously described in Section 3.3. For the phototoxicity study using WM983b cells, plates were prepared at a cell density of 40,000 cells/cm2, and cells were treated with MB and AO only.
On the technique in general: The colour change of resazurin is a common sign of viable cells or microbes.

Data set [2] relates to MET1 cells. Described as above. To be noted: Homo sapiens, MET-1, light or radiation study, MET1 cells, treated 24 h. As for the experimental part: as §1
Another data set deals with HaCaT cells. Description: Cytotoxicity (resazurin cell viability) in HaCaT cells. Conditions: Homo sapiens, HaCaT cells, 1.25-320 µM. An excerpt: (§2) The MET1 SCC cell line (human squamous cell carcinoma) was obtained from Ximbio (London, UK), HaCaT (immortalized human keratinocytes cell line) was obtained from Addexbio (San Diego, CA, USA) and WM983b (human metastatic melanoma cell line) was obtained from Rockland (Pottstown, PA, USA). Cells were maintained in Dulbecco’s Modified Eagle Medium (DMEM) supplemented with 10% (v/v) fetal bovine serum (FBS) for MET1 and HaCaT and 5% (v/v) for WM983b cells, and Pen–Strep (penicillin 100 U/mL and streptomycin 100 µg/mL). Cells were cultivated in an incubator (Sanyo MCO-19AIC-UV) at 37 °C in a 5% CO2 humidified atmosphere.
(§3) First, 96-well plates were seeded with HaCaT and MET1 cells at a density of 20,000 cells/cm² and incubated for 24 h. After that period, the culture medium was replaced by culture medium containing different compounds: MB, AO, GV, QT, CUR, EGCG, PHE, NEO and BIPY. The compounds were diluted in culture medium using a range of concentrations of each compound from 1.25 µM to 320 µM (in quadruplicate). The medium was aspirated from the 96-well plate and replaced by the samples diluted in medium. Cells cultured with complete medium and cells cultured with medium supplemented with 0.2% (v/v) or 10% (v/v) of DMSO were used as negative (NC), solvent (SC) and positive controls (PC), respectively. The plates were incubated for 24 and 48 h, followed by evaluation of cell viability using a colorimetric assay. Cells containing samples were washed with PBS supplemented with calcium and magnesium; then, resazurin solution diluted in DMEM at 0.02 mg/mL was added. The medium containing resazurin was also dispensed in wells without cells, which were used as references. After 3 h of incubation, the absorbance was measured in a microplate reader (ELX800UV, Biotek Instruments) at wavelengths of 570 nm and 600 nm. The corrected absorbance was proportional to cell viability. Propagation of uncertainties was used to calculate the combined standard uncertainty. For the cytotoxicity study using WM983b cells, plates were seeded at a density of 40,000 cells/cm², and cells were treated only with MB and AO.

Data set [3] has as its system MET1 cells. Kind of data set: Cytotoxicity (resazurin cell viability) in MET1 cells. Conditions: Homo sapiens, MET-1, MET1 cells, 1.25-320 µM.
Description: as §2, §3

Where [4] appears, read: 24 h exposure, read-out: IC50 HaCaT Cells 24 h.
Setting [5] is: 48 h exposure, read-out: IC50 HaCaT Cells 48 h.
Setting [6] is: 24 h exposure, read-out: IC50 MET1 Cells 24 h.
The mark [7] stands for this setting: 48 h exposure, read-out: IC50 MET1 Cells 48 h.

Like-named read-outs stand apart in the source and are kept apart here.

For orientation: IC50 means the concentration that inhibits the measured activity by half. Regarding `CN(C)c1ccc(C(=C2C=CC(=[N+](C)C)C=C2)c2ccc(N(C)C)cc2)cc1` [Gentian violet, gentian violet], the viability at 24 h, 1.25 µM in data set [1] (1.25 µM, read-out: relative cell viability, dark condition, lowest concentration) was less than 60%. The IC50 in the data set with MET1 cells [2] (254 nm light, 2.5 J/cm², read-out: IC50 254 nm) came to 1.5 µM; in the data set with MET1 cells [2] (457 nm light, 2.5 J/cm², read-out: IC50 457 nm), 2.7 µM; in the data set on MET1 cells [2] (583 nm light, 2.5 J/cm², read-out: IC50 583 nm), 1 µM; in the data set with MET1 cells [2] (640 nm light, 2.5 J/cm², read-out: IC50 640 nm), 1.8 µM; in the data set with MET1 cells [2] (dark control (no irradiation), read-out: IC50 Dark), 2.9 µM; in the data set on HaCaT cells (setting [4]) it was 2.8 µM. For the same compound, the IC50 came to 0.9 µM in the data set on HaCaT cells (setting [5]), 3.9 µM in the data set on MET1 cells [3] (setting [6]) and 1.2 µM with MET1 cells [3] (setting [7]).
`Cc1ccc2ccc3ccc(C)nc3c2n1` [Neocuproine, neocuproine]: in data set [1] (1.25-40 µM, read-out: cell viability under dark conditions), the viability at 24 h is less than 70%. The IC50 with HaCaT cells (setting [4]) is greater than 320 µM; in the data set with HaCaT cells (setting [5]), 159 µM; in the data set on MET1 cells [3] (setting [6]) it was greater than 320 µM; in the data set on MET1 cells [3] (setting [7]) it was greater than 320 µM.
